From ChEMBL document CHEMBL1153704, “Imidazo[1,2-a]pyrazine diaryl ureas: inhibitors of the receptor tyrosine kinase EphB4” (Bioorg Med Chem Lett, 2009) come the findings set out here.

Experiment [1] deals with T1, Angiopoietin-1 receptor (Homo sapiens, UniProt Q02763). The experiment in a line: Inhibition of Tie2 autophosphorylation by cell based assay.
Experiment [2] has as its target T1, Angiopoietin-1 receptor. The experiment is described as follows: Inhibition of Tie2 after 1 hr.
Experiment [3] has as its target T2, Ephrin type-B receptor 4 (Homo sapiens) (UniProt P54760).
T2 sequence (whole entry): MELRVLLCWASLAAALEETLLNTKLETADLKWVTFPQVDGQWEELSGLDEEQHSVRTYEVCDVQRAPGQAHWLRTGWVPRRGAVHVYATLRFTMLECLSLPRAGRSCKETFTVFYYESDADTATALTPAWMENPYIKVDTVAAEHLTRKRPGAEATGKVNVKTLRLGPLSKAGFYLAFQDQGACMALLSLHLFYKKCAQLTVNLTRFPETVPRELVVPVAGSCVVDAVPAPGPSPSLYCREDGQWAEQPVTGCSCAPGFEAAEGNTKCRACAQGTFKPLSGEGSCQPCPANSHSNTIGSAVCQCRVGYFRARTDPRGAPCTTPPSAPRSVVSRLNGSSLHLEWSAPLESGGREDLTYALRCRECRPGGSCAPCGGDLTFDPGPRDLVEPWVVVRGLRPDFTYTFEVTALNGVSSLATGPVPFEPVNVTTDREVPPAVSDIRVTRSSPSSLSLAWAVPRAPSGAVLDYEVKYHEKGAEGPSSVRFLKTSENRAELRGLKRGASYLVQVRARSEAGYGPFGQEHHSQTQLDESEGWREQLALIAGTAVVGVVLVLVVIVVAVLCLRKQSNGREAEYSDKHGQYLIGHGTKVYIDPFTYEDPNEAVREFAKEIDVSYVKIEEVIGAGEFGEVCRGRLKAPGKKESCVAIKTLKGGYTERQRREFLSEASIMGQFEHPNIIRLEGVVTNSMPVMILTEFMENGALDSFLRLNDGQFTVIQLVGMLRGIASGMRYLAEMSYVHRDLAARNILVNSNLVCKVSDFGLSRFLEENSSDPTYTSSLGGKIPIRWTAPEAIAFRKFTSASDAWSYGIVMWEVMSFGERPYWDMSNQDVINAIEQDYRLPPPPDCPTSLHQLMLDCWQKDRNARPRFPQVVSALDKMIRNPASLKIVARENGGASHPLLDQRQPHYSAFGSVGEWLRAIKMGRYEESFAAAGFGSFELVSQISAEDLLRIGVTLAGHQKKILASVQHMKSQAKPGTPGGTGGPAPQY
The experiment in a line: Inhibition of EphB4 at 10 uM after 1 hr.

In experiment [4] the target is T2, Ephrin type-B receptor 4 (Homo sapiens). The experiment is described as follows: Inhibition of EphB4 at 1 uM after 1 hr.
Experiment [5] addresses T3, Receptor-type tyrosine-protein kinase FLT3 (Homo sapiens, UniProt P36888).
T3 sequence (P36888 whole entry): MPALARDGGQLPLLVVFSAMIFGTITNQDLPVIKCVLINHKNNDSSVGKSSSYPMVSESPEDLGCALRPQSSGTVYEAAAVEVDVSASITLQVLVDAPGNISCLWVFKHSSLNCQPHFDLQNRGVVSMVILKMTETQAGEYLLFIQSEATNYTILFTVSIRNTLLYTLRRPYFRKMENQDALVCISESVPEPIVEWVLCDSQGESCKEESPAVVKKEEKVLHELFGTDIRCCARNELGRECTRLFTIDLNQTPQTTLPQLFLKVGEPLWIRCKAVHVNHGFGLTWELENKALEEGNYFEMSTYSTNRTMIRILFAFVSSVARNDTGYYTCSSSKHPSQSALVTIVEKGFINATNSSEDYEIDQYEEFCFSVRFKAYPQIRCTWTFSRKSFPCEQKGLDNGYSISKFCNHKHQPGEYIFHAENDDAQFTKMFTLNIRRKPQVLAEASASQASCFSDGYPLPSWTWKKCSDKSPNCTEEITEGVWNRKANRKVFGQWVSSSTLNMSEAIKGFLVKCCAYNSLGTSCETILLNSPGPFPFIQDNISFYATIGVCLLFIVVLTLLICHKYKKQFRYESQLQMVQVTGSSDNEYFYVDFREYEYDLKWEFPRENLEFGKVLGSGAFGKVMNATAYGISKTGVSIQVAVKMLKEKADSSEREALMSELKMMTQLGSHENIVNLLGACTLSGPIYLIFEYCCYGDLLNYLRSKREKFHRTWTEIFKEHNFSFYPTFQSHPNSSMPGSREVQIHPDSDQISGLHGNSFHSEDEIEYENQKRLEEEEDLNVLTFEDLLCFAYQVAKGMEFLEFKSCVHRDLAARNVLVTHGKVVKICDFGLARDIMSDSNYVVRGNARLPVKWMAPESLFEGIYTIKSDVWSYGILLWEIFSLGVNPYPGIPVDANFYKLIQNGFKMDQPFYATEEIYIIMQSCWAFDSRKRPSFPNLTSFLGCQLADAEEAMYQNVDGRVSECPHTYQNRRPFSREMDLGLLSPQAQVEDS
The experiment is described as follows: Inhibition of Flt3 after 1 hr.

The target of experiment [6] is T4, Ephrin type-B receptor 4 (Homo sapiens, UniProt P54760).
T4 sequence (P54760 whole entry): T2 sequence (whole entry)
The experiment is described as follows: Inhibition of EphB4 after 1 hr.

For experiment [7], the target named is Tyrosine-protein kinase BTK (Homo sapiens, UniProt Q06187). The experiment in a line: Inhibition of Btk after 1 hr.
The target in experiment [8] is Tyrosine-protein kinase ABL1 (Homo sapiens, UniProt P00519). The experiment is described as follows: Inhibition of Abl1 after 1 hr.
Experiment [9] deals with Vascular endothelial growth factor receptor 1 (Homo sapiens, UniProt P17948). The experiment is described as follows: Inhibition of VEGFR1 after 1 hr.
Experiment [10] deals with Ephrin type-A receptor 2 (Homo sapiens, UniProt P29317). The experiment in a line: Inhibition of EPHA2 after 1 hr.
Experiment [11] addresses Tyrosine-protein kinase Lyn (Homo sapiens, UniProt P07948). The experiment is described as follows: Inhibition of Lyn after 1 hr.
Experiment [12] concerns the target Platelet-derived growth factor receptor beta (Homo sapiens, UniProt P09619). The experiment in a line: Inhibition of PDGFRbeta after 1 hr.
The target of experiment [13] is Vascular endothelial growth factor receptor 2 (Homo sapiens, UniProt P35968). The experiment in a line: Inhibition of VEGFR2 after 1 hr.
Experiment [14] has as its target Vascular endothelial growth factor receptor 3 (Homo sapiens, UniProt P35916). The experiment is described as follows: Inhibition of VEGFR3 after 1 hr.

T1 sequence (Q02763 whole entry): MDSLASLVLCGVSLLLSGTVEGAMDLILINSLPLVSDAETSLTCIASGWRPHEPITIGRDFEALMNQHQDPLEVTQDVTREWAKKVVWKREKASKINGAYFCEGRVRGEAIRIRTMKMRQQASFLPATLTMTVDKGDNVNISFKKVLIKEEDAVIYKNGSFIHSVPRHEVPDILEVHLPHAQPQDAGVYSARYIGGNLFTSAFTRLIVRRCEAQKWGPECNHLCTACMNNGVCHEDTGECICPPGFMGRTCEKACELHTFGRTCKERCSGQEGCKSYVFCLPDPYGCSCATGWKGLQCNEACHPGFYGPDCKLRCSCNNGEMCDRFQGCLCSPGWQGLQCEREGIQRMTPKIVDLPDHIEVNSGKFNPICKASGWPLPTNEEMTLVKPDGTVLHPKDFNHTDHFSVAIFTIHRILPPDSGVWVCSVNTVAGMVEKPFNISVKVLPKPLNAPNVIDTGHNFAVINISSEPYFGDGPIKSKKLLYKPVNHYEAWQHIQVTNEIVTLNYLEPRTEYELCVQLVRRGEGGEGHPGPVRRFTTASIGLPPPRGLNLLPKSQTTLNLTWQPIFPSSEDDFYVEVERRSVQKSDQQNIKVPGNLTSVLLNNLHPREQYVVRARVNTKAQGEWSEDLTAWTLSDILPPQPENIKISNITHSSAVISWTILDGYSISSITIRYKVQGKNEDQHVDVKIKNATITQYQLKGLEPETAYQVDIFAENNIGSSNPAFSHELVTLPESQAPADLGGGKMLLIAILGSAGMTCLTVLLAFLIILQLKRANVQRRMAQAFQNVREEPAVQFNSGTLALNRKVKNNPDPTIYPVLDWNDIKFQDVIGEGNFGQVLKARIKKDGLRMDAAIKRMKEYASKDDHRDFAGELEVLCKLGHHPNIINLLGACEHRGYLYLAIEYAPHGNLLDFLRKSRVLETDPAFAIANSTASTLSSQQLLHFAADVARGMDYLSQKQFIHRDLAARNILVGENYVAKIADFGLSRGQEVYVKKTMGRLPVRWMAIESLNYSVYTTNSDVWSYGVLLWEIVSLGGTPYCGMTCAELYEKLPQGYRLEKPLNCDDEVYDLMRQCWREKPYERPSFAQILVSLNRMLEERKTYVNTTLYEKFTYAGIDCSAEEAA
Chain of Tyrosine-protein kinase ABL1 (P00519 whole entry): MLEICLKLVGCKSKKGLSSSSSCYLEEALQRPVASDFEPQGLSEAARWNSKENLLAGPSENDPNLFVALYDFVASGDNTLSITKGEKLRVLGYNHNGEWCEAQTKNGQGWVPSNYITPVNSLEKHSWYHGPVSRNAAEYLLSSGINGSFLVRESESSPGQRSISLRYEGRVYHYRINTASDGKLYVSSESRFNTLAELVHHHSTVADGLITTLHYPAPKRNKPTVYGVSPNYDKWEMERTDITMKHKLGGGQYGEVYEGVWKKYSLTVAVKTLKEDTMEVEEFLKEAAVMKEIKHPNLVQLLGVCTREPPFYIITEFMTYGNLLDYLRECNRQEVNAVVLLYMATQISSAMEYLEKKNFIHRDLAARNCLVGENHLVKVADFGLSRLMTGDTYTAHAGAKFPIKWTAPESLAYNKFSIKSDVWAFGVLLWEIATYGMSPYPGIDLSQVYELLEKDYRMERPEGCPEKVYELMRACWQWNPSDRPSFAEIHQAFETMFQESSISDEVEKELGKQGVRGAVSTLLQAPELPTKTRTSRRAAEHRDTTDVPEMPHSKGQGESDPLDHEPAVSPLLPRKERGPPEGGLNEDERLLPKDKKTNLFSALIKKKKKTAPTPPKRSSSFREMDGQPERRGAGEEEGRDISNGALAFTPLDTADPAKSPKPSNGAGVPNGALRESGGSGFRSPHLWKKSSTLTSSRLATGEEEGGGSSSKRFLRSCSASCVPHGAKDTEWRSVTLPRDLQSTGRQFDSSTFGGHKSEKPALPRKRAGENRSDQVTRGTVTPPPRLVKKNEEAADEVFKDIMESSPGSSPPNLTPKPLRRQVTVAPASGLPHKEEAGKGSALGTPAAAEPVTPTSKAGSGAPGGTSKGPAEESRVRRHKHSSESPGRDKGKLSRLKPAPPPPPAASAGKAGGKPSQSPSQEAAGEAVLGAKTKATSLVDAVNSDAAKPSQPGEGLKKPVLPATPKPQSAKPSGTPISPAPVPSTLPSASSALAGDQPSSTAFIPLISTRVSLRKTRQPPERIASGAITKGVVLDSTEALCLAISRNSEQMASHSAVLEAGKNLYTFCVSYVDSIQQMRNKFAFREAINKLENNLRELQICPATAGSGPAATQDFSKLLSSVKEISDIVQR
Chain of Ephrin type-A receptor 2 (P29317 whole entry): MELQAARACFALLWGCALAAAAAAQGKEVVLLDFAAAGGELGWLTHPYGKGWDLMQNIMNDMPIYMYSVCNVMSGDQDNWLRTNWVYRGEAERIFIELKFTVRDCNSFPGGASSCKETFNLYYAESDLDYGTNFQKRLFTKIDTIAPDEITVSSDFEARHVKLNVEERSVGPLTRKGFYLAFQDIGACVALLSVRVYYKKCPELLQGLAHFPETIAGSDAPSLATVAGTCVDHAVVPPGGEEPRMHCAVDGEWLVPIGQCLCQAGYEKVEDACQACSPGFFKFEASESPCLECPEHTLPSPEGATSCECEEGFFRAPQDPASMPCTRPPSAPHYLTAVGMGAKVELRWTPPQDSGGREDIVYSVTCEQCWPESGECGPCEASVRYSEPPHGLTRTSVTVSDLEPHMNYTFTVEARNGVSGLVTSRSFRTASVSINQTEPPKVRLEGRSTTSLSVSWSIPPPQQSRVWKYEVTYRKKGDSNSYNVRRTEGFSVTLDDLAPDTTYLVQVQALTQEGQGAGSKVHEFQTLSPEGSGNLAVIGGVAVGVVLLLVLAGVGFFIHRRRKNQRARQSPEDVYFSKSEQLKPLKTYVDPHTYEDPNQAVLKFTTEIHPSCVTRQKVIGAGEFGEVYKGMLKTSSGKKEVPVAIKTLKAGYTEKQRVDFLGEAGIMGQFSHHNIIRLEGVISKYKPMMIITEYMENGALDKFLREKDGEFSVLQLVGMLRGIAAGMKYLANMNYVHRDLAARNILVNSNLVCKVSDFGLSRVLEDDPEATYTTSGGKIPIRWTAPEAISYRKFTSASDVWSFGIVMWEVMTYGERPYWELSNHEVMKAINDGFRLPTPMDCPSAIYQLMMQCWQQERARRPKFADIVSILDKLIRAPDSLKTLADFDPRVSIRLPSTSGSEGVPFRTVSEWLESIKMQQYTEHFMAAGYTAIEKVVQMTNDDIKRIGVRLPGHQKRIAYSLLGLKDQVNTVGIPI
Chain of Platelet-derived growth factor receptor beta (P09619 whole entry): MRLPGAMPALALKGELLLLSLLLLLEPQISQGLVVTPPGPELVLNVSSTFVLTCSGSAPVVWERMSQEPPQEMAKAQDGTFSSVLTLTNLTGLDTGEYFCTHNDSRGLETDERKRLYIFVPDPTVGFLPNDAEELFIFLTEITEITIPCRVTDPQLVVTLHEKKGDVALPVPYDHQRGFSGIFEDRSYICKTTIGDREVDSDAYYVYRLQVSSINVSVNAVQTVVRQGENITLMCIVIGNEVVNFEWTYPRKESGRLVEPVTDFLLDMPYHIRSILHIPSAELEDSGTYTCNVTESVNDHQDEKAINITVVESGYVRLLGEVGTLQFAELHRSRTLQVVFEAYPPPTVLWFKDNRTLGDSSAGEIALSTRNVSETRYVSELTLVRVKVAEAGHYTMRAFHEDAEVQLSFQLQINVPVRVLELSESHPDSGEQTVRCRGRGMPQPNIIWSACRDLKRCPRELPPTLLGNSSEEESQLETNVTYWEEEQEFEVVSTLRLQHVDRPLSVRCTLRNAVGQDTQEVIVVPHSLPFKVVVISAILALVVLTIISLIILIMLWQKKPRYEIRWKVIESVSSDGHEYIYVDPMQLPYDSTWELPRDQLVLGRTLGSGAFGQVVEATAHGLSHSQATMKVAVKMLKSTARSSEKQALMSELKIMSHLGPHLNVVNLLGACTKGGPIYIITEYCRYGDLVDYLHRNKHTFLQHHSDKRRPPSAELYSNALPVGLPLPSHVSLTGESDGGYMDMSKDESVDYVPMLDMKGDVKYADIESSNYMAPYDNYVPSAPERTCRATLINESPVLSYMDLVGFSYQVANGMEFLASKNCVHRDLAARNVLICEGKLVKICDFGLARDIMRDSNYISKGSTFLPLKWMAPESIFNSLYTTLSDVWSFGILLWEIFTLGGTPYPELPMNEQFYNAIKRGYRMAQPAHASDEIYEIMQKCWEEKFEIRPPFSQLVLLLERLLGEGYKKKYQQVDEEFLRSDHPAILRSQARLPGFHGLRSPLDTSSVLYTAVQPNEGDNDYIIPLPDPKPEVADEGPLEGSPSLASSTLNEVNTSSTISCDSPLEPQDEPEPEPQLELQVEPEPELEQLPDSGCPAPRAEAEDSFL
Chain of Tyrosine-protein kinase Lyn (P07948 whole entry): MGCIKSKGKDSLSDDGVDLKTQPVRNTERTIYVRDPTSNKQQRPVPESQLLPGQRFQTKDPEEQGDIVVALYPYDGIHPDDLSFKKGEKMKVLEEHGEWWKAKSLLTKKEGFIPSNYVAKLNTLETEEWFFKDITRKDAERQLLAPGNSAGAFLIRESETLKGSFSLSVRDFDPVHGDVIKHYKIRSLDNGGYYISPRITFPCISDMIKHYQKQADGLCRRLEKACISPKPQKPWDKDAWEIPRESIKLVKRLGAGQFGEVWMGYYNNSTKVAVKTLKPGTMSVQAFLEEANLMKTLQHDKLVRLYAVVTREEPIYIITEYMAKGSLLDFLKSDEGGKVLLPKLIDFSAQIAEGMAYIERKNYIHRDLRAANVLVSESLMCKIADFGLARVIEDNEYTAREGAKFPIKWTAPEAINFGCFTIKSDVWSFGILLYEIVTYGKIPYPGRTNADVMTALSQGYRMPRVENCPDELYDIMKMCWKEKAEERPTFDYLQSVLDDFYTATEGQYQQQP

For the compound `O=C(Nc1cccc(-c2cn3ccnc3c(NCc3ccncc3)n2)c1)Nc1cc(C(F)(F)F)ccc1F`, the IC50 in experiment [1] was 0.1 µM; in experiment [2], 0.037 µM.

For `COc1ccc(C(F)(F)F)cc1NC(=O)Nc1cccc(-c2cn3ccnc3c(NCc3ccncc3)n2)c1`, the IC50 stood at 0.05 µM in experiment [1] and 0.033 µM in [2].

On to `O=C(Nc1cccc(-c2cn3ccnc3c(Nc3ccncc3)n2)c1)Nc1cccc(C(F)(F)F)c1`, for which the inhibition in [3] is 32%.

In [3], `O=C(Nc1cccc(-c2cn3ccnc3c(NCc3ccccn3)n2)c1)Nc1cccc(C(F)(F)F)c1` had an inhibition of 32%.

On to `O=C(Nc1ccc(C(F)(F)F)cc1)Nc1cccc(-c2cn3ccnc3c(NCc3ccncc3)n2)c1`, for which the inhibition in experiment [4] came to 10%.

In turn, `COc1ccccc1NC(=O)Nc1cccc(-c2cn3ccnc3c(NCc3ccncc3)n2)c1` displayed an inhibition in [4] of 54%.

Consider `COc1ccc(Br)cc1NC(=O)Nc1cccc(-c2cn3ccnc3c(NCc3ccncc3)n2)c1`, for which the IC50 amounted to 0.25 µM in experiment [1] and 0.075 µM in [2].

Consider `Cc1ccccc1NC(=O)Nc1cccc(-c2cn3ccnc3c(NCc3ccncc3)n2)c1`, for which the inhibition in experiment [4] is 30%.

For `O=C(Nc1ccc(Br)cc1)Nc1cccc(-c2cn3ccnc3c(NCc3ccncc3)n2)c1`, in experiment [4], the inhibition turned out to be 22%.

In turn, `O=C(Nc1cccc(-c2cn3ccnc3c(Nc3ccccc3)n2)c1)Nc1cccc(C(F)(F)F)c1` returned an inhibition in [3] of 36%.

With `O=C(Nc1cccc(-c2cn3ccnc3c(NCc3ccncc3)n2)c1)Nc1cccc(C(F)(F)F)c1`, the IC50 in [2] is 0.067 µM; in experiment [5] it was 2 µM; in experiment [6] it was 0.062 µM; in experiment [7], 7.8 µM; in [8] it was 14.4 µM; in [9], 0.747 µM. The IC50 in [10] stood at 0.035 µM; in [11] it was 6 µM; in experiment [12] it was 7.7 µM; in experiment [13] it was 0.033 µM; in experiment [14], 0.071 µM.

Turning to `O=C(Nc1cccc(F)c1)Nc1cccc(-c2cn3ccnc3c(NCc3ccncc3)n2)c1`, the inhibition in experiment [4] turned out to be 47%.

In experiment [4], `COc1ccc(C(F)(F)F)cc1NC(=O)CNc1cccc(-c2cn3ccnc3c(NCc3ccncc3)n2)c1` displayed an inhibition of 2.9%.

A word on the IC50: it is the concentration needed to halve the response being measured. Higher therefore signals lower potency. As a reminder, the inhibition is the change of the read-out against control, counted positive when it falls. Read a high inhibition as a strong effect.
